Like-named read-outs stand apart in the source and are kept apart here.
Columns and labels:
CYP3A7 = assay: Expression of CYP3A7 upon cell damage, liver damage by a CYP-inducing drug in humanized CYP3A model mouse; format: in vivo; settings: versus corn oil administration control group, hepatocyte regeneration after liver damage
Text: The expression of CYP3A7 during the injury of hepatocytes was examined by a method of liver regeneration after partial hepatectomy performed on 70% living liver, using a humanized CYP3A model mouse into which human CYP3A4 and CYP3A7 have been incorporated, a method of damaging the liver of the same mouse as described above by administration of a CYP-inducing drug, and a method of transplanting frozen human hepatocytes into the liver injury model mouse. In the method of liver regeneration after the partial hepatectomy, mice that were fed after 70% of the liver had been excised by ligating it with a cord were produced. Thereafter, the mice were successively subjected to dissection from Days 1 to 5 to collect the liver from each mouse, and gene expression was then examined. In the method of damaging the liver by administration of a CYP-inducing drug, the liver was excised from each mouse belonging to a PCN administration group and a corn oil administration control group, and gene expression was then examined. In the method of transplanting frozen human hepatocytes into the living mouse, a part of the humanized mouse liver was obtained from PhenixBio, and gene expression was then examined.

[1] = tested on: gene expression control region of the human CYP3A4 gene (EGFP reporter)
Protocol: (§1) Forty-eight hours later (corresponding to Day 14 of differentiation culture), the total area fluorescence intensities of EGFP and DsRed were analyzed under a fluorescence microscope (FIG. 16).

[2] = tested on: gene expression control region of the human CYP3A7 gene (DsRed reporter)
Protocol: as §1

CYP3A7-DsRed [3] = assay: Liver injury test using CYP3A4+/7R MAC-introduced mice, observation under fluorescence microscope; format: in vivo, mouse; settings: 8 weeks old mice; 5% carbon tetrachloride dissolved in DMSO; observed for 3 days
Text: The CYP3A4+/7MAC-introduced mice produced in Example 5 strongly expressed DsRed for several weeks after the birth. […] In the CYP3A4+/7R MAC-introduced mice, EGFP functions as a marker showing introduction of MAC in the cells.

CYP3A7-DsRed [4] = assay: Liver injury test using CYP3A4+/7R MAC-introduced mice, analysis by quantitative RT-PCR; format: in vivo, mouse; settings: adult mice; 5% carbon tetrachloride; Days 1, 2 and 3 versus non-administered (Day 0)
Protocol: Using RNAs extracted from the livers of the CYP3A4+/7R MAC-introduced mice to which 5% carbon tetrachloride had been administered in Test Example 11 and non-administered (Day 0) mice, an increase in the expression of DsRed on Days 1, 2 and 3 after the administration was analyzed by quantitative RT-PCR (FIG. 19).

| SMILES | cellular damage to HepaRG cells (HepaRG cells; HepaRG cells) | expression of CYP3A7 in liver (CYP3A7) | expression of EGFP (total area fluorescence intensity) [1] | fluorescence intensity of DsRed ([2]; HepaRG clone C3, drug in 1% DMSO, 48 hours, DMSO control group = 1) | fluorescence intensity of DsRed in the liver (CYP3A7-DsRed [3]) | expression of DsRed in the liver (quantitative RT-PCR) (CYP3A7-DsRed [4]) | cellular damage to HepaRG cells (HepaRG cells) | fluorescence intensity of DsRed [2] |
| --- | --- | --- | --- | --- | --- | --- | --- | --- |
| CC(=O)[C@H]1[C@H](C#N)C[C@H]2[C@@H]3CC=C4C[C@@H](O)CC[C@]4(C)[C@H]3CC[C@@]21C [PCN, pregnenolone 16α-carbonitrile] | high cellular damage | transiently increased | non-inducibility | increase | – | – | – | – |
| ClC(Cl)(Cl)Cl [carbon tetrachloride] | – | – | – | – | increase | increases | – | – |
| Clc1ccccc1C(c1ccccc1)(c1ccccc1)n1ccnc1 [clotrimazole] | – | – | induced | – | – | – | high cellular damage | increase |
